Test results from ChEMBL document CHEMBL1201862, “PubChem BioAssay data set” (2004).
pIC50: −log10 of the molar value. The source made the active and inactive calls.

Key:
[1] = biological target: Sphingosine 1-phosphate receptor 2 (Homo sapiens, UniProt O95136); assay: Late-stage fluorescence-based dose-response cell-based counterscreen assay to identify agonists of the Sphingosine 1-Phosphate Receptor 3 (S1P3): Sphingosine 1-Phosphate Receptor 2 (S1P2) agonist assay.; type: functional
[2] = biological target: T1, Sphingosine 1-phosphate receptor 4 (Homo sapiens, UniProt O95977); assay: Late-stage fluorescence-based dose-response cell-based counterscreen assay to identify agonists of the Sphingosine 1-Phosphate Receptor 3 (S1P3): Sphingosine 1-Phosphate Receptor 4 (S1P4) agonist assay.; type: functional
T1 sequence (O95977 whole entry): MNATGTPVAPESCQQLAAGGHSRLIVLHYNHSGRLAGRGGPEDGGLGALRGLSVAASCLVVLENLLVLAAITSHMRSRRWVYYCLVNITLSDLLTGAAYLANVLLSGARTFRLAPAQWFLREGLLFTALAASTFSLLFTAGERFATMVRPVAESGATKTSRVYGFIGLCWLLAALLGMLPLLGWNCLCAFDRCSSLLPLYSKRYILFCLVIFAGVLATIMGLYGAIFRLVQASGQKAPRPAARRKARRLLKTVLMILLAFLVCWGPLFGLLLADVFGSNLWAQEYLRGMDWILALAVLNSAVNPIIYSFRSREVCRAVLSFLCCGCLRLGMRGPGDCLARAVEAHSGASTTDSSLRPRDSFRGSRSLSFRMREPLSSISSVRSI

[3] = cytotoxicity toward HCT116 cells – cell-based, CellTiter-Glo luminescence, IC50, dose response (AID 1117332); type: functional; conditions: HCT-116
Mu-type opioid receptor = Mu-type opioid receptor (Homo sapiens, UniProt P35372); assay: HTS Image-Based Screen for Agonists of the MOR Receptor. [Related pubchem assays (depositor defined):AID1777, AID1785, AID1786, AID2133]; type: functional;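 also: imaging of beta-arrestin GFP recruitment into spots after receptor activation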
Mu-type opioid receptor, sequence (P35372 whole entry): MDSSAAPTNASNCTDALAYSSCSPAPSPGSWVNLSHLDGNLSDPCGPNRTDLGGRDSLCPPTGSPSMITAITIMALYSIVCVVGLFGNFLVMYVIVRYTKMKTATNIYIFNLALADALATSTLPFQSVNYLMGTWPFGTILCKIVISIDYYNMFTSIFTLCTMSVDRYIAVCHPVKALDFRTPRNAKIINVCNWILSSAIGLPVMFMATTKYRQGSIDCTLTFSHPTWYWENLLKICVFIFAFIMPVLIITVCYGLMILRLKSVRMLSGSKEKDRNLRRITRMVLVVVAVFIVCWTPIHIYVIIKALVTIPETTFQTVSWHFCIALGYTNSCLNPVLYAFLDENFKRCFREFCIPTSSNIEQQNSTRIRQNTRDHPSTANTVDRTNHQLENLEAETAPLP

Beta-galactosidase = Beta-galactosidase (Escherichia coli, UniProt Q8VNN2); type: functional
Beta-galactosidase, sequence (Q8VNN2 whole entry): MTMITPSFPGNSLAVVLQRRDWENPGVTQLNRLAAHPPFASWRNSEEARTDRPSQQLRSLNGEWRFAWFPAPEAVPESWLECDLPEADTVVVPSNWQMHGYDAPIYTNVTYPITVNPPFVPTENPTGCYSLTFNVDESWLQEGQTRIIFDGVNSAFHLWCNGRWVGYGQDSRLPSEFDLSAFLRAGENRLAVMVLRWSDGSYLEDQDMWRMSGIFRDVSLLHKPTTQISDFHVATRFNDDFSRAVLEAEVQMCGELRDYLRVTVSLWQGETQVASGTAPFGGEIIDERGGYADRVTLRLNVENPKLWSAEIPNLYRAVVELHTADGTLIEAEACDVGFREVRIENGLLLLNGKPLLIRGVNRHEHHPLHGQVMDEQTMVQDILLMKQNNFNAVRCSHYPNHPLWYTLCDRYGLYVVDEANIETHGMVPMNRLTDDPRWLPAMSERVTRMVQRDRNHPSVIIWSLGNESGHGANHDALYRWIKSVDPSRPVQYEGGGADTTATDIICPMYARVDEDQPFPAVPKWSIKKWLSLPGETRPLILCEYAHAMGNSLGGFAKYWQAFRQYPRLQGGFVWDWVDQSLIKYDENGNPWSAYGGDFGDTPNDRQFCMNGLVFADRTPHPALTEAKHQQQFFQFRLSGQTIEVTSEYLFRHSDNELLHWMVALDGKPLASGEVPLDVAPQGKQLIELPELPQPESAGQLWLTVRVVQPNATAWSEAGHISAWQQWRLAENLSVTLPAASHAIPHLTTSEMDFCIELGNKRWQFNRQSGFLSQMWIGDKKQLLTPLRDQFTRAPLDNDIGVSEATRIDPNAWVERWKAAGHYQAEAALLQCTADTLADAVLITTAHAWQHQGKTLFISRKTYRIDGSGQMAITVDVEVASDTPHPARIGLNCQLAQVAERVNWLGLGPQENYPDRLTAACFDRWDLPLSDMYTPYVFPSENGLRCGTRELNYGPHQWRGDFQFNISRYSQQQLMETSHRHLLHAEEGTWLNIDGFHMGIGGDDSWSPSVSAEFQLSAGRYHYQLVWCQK

[4] = HCT116 cell viability decrease, GSK3B pretreatment – CellTiter-Glo, IC50, dose response (AID 1117339); type: functional; conditions: HCT-116
[5] = HeLa 2N DNA content increase, dose response, cell-based, IC50 (AID 1117349); type: functional
[6] = cytotoxicity toward Colo320 cells – cell-based, CellTiter-Glo luminescence, IC50, dose response (AID 1117334); type: functional; conditions: COLO 320
[7] = biological target: T2, Delta-type opioid receptor (Homo sapiens, UniProt P41143); assay: HTS Image-Based Screen for Agonists of the DOR Receptor. [Related pubchem assays (depositor defined):AID1777, AID1786, AID2133]; type: functional
T2 sequence (P41143 whole entry): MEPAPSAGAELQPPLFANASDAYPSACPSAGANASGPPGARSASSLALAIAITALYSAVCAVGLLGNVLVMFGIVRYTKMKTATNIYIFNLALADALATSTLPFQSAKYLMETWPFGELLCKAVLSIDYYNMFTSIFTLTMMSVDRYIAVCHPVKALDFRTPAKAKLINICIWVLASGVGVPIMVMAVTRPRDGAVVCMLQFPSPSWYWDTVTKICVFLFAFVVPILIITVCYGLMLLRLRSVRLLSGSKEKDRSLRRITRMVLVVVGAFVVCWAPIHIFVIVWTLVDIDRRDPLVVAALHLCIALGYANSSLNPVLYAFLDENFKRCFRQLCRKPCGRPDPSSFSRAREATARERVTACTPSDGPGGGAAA

[8] = biological target: T3, Kappa-type opioid receptor (Homo sapiens, UniProt P41145); type: functional
T3 sequence (P41145 whole entry): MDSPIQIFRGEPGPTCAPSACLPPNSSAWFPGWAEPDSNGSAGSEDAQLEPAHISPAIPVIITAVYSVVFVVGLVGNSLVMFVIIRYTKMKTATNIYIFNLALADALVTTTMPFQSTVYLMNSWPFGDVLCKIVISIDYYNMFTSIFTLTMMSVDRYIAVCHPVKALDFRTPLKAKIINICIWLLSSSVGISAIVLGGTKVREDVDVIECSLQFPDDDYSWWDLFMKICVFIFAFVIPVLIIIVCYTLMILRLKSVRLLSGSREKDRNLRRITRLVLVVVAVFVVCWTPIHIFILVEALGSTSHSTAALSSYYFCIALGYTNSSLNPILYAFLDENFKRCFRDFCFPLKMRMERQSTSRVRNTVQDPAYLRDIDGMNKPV

[9] = biological target: T2, Delta-type opioid receptor; assay: HTS Image-Based Screen for Antagonists of the DOR Receptor. [Related pubchem assays (depositor defined):AID1777, AID1785, AID1786, AID2133]; type: functional
Streptococcus = assay: Group A Streptococcus viability loss, dose response, counter-screen for streptokinase expression inhibitor project, luminescence, BacTiterGlo (AID 1915); type: functional, organism-based;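 also: potency for reduction of bacterial viability or growth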
[10] = HeLa 4N DNA content increase, dose response, cell-based, IC50 (AID 1117351); type: functional
[11] = biological target: Heat shock protein HSP 90-alpha (Homo sapiens, UniProt P07900); type: functional, organism-based
[12] = RKO cell viability reduction, dose response, CellTiter-Glo luminescence (AID 1117322); type: functional
[13] = biological target: T3, Kappa-type opioid receptor; type: functional; remark: listed apart in the source
[14] = Concentration-dependent survival of SW480 colon cancer line, luminescence detection with CellTiter-Glo, half-maximal inhibitory concentration (AID 1117338); type: functional
[15] = CellTiter-Glo luminescent dose response of DLD-1 viability loss (AID 1117352); type: functional
HSP90 = HSP90 (Plasmodium falciparum 3D7, UniProt Q8IL32); type: functional, organism-based
HSP90, sequence (Q8IL32 whole entry): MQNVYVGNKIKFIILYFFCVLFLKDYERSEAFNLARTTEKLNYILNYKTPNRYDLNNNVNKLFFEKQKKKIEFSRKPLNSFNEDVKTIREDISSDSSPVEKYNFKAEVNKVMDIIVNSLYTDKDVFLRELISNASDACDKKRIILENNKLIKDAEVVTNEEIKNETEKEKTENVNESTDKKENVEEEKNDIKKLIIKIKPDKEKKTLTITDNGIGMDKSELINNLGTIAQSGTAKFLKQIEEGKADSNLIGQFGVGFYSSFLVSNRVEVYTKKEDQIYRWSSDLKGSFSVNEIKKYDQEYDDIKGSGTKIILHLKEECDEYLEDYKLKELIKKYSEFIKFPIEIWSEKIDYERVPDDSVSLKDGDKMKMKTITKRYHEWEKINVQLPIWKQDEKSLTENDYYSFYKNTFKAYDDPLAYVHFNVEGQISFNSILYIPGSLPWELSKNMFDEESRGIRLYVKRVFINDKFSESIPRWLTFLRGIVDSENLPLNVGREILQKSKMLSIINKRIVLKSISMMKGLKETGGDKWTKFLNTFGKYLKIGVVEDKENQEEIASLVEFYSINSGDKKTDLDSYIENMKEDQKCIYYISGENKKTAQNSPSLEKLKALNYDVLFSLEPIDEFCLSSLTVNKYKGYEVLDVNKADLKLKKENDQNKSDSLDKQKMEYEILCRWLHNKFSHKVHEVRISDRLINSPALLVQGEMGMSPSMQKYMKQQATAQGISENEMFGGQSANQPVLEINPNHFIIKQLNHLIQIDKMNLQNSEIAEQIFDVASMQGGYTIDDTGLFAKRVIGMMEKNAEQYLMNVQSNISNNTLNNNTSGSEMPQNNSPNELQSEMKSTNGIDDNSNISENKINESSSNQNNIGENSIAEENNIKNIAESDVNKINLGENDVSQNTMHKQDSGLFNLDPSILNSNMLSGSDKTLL

[16] = cytotoxicity toward HT-29 cells – cell-based, CellTiter-Glo luminescence, IC50, dose response (AID 1117330); type: functional
[17] = SNU-C1 cell viability reduction, dose response, CellTiter-Glo luminescence (AID 1117323); type: functional, cell-based
[18] = test system: Streptococcus sp. 'group A'; assay: growth inhibition of control SK(-) GAS strain, dose response, counter-screen for streptokinase expression inhibitor project, luminescence, kanamycin, BacTiterGlo, confirmation (AID 1900); type: functional, organism-based

Sphingosine 1-phosphate receptor 2, sequence (O95136 whole entry): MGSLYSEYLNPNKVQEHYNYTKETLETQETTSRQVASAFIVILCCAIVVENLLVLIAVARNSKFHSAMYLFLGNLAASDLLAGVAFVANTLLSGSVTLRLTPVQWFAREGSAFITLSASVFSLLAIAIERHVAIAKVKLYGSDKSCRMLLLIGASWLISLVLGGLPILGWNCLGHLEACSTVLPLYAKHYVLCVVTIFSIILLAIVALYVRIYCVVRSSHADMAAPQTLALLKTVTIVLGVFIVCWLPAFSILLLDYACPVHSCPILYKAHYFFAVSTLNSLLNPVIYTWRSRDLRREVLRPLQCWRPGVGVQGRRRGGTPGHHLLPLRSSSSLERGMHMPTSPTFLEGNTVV

For `CC1CCCCC1N(C(=O)c1cc(C2CC2)on1)C1CCOCC1` (configuration not stated), the EC50 [1] was > 50 µM (inactive) and the EC50 [2] was > 50 µM (inactive).

In the case of `Oc1c(Cl)cc(Cl)c2cccnc12` [CHLOROXINE], the IC50 [3] was 0.0475 µM (active), the EC50 (Mu-type opioid receptor) was > 32 µM (inactive) and the EC50 (Beta-galactosidase) was > 31.5 µM (inactive). The IC50 [4] was 0.0393 µM (active), the IC50 [5] was > 10 µM (inactive) and the IC50 [6] was 0.0493 µM (active). The EC50 [7] was > 32 µM (inactive), the pIC50 [8] was less than 4.49 and the IC50 [9] was > 32 µM (inactive). For the same molecule, the EC50 (Streptococcus) was 3.31 µM (active), the IC50 [10] was > 10 µM (inactive) and the AC50 [11] was 1.05 µM (active). The IC50 [12] was 0.0627 µM (active), the IC50 [13] was 4.56 µM (active) and the IC50 [14] was 0.0438 µM (active). For the same molecule, the IC50 [15] was 0.409 µM (active), the AC50 (HSP90) was 0.511 µM (active) and the IC50 [16] was > 20 µM (inactive). For the same molecule, the IC50 [17] was 0.495 µM (active) and the EC50 [18] was 0.258 µM (active).
